Tests used:
[1] = tested on: Ba/F3-EML-4-ALK-WT; assay: Cell anti-proliferation test 3 (CTG), Ba/F3-EML-4-ALK-WT; type: cell-based; conditions: Mus musculus, 72 h, BaF3 cells, Day 3
[2] = tested on: BaF3 EML-4-ALK-L1196M cells; assay: In-vivo pharmacodynamic study, transplanted tumor model of BaF3 EML-4-ALK-L1196M cells in nude mice; parameters: species or system BALB/c nude mice; conditions: for Effect on tumor growth (in words): compound 2 50 mg/kg, compound 6 60 mg/kg, compound 14 80 mg/kg
Experimental: The models used in this test were subcutaneous transplanted tumor models of engineered BaF3 EML-4-ALK-L1196M cells in BALB/c nude mice. The engineered BaF3 cells were cultured in vitro suspension. […] Passages were treated twice a week. When the cell number reached requirement, the cells were collected, counted and inoculated. 0.2 mL (10^6) of cells (added with matrigel, 1:1 by volume) were subcutaneously inoculated in the right back of each mouse, and divided into groups for dosing with 6 mice per group when the mean tumor volume reached 128 mm^3.
Administration mode and frequency: oral gavage was carried out with an administration volume of 10 mL/kg, and the model group was administered with the same volume of solvent. The administration was once per day and continuously carried out for 14 days. The dose of compound 2 was 50 mg/kg, the dose of compound 6 was 60 mg/kg, and the dose of compound 14 was 80 mg/kg.
General conditions such as spirit, activity, food intake and the like of the mice were observed every day, and the weight was measured thrice every week; the short diameter (a) and the long diameter (b) of each mouse tumor were measured thrice a week with a vernier caliper, and the tumor volume was calculated according to the formula (a^2×b)/2. The Relative Tumor Volume (RTV) was calculated from the measured tumor volume, wherein RTV=Vt/V0, wherein V0 was the tumor volume at random grouping (i.e., d0) and Vt was the tumor volume at each measurement (i.e., dn). The relative tumor proliferation rate of the evaluation index of the anti-tumor activity was calculated according to the following formula: relative tumor proliferation rate T/C (%): […]
(Note: TRTV: treatment group RTV; CRTV: model control group RTV. According to the therapeutic effect evaluation standard in the Technical Guidelines for Non-clinical Research of Cytotoxic Anti-tumor Drugs Issued by National Medical Products Administration of China, the value (T/C %≤40%) was effective).

[3] = tested on: Ba/F3 cells expressing EGFR-WT; assay: Cell anti-proliferation test 1 (CTG), BaF3 EGFR-WT; conditions: Mus musculus, BaF3, 72 h, read-out: EGFR-WT IC50
[4] = biological target: EGFR-C797S/T790M/L858R (Homo sapiens (Human), UniProt P00533, C797S/L858R/T790M); assay: Enzymatic activity test (ADP-Glo) EGFR-C797S/T790M/L858R; type: biochemical; conditions: kinase
Method in brief: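 Each EGFR mutant was preincubated with compound, Poly(Glu4,Tyr1) and Tris-HCl pH 7.5 buffer (MgCl2, DTT, BSA) for 15 min at 23 °C. ATP was then added for 60 min at 23 °C. ADP-Glo luminescence gave ATP consumption, and IC50 came from a 4-parameter logistic fit.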

[5] = biological target: EML4-ALK kinase (Homo sapiens (Human), UniProt Q9HC35+Q9UM73); assay: Enzymatic activity test 2 (ADP-Glo) EML4-ALK kinase; type: biochemical
Experimental: (§1) • 1. […] Test information:
(§2) To assess the effect of compounds on the activity of EML4-ALK kinases, kinase activity was tested by measuring ATP consumption in an enzymatic reaction using an ADP-Glo (Promega Corporation) kit. Samples to be tested were dissolved in DMSO and diluted in a gradient. In a microplate, an EML4-ALK kinase, a reaction buffer (containing Tris-HCl with a pH of 7.5, MgCl2, DTT and BSA), a kinase substrate IGF1 and a sample (a total volume of 20 μL per well) were added per well, while a blank control (no enzyme and sample) and a negative control (no sample) were set up; added with 5 μL of ATP, and reacted at 23° C. for 60 minutes; added with ADP-Glo Reagent, and continuously reacted for 40 minutes at room temperature to inactivate the redundant ATP; then, added with a kinase detection reagent, and reacted at room temperature for 30 minutes, then the chemiluminescence intensity L of each well was measured. […] IC50 values were calculated according to the above calculation using 4Parameter Logistic Model in XLfit software. • 3.

[6] = biological target: EGFR-T790M/L858R (Homo sapiens (Human), UniProt P00533, L858R/T790M); assay: Enzymatic activity test (ADP-Glo) EGFR-T790M/L858R; type: biochemical; conditions: kinase
Experimental: as §1
as §2, with “of wild-type and mutant EGFR” for “of EML4-ALK”, “an EGFR” for “an EML4-ALK”, “substrate Poly(Glu4, Tyr1)” for “substrate IGF1”, “up; incubated for 15 minutes at 23° C.;” for “up;”, “a Kinase Detection Reagent,” for “a kinase detection reagent,”

[7] = biological target: EGFR-WT (Homo sapiens (Human), UniProt P00533); assay: Enzymatic activity test (ADP-Glo) EGFR-WT; type: biochemical; conditions: kinase
Experimental: as §1
as §2, with “of wild-type and mutant EGFR” for “of EML4-ALK”, “an EGFR” for “an EML4-ALK”, “substrate Poly(Glu4, Tyr1)” for “substrate IGF1”, “up; incubated for 15 minutes at 23° C.;” for “up;”, “a Kinase Detection Reagent,” for “a kinase detection reagent,”

[8] = 50 mg/kg oral gavage once per day
[9] = 60 mg/kg oral gavage once per day
[10] = 80 mg/kg oral gavage once per day

Sequence of EGFR-T790M/L858R (P00533 25-1210 T790M/L858R): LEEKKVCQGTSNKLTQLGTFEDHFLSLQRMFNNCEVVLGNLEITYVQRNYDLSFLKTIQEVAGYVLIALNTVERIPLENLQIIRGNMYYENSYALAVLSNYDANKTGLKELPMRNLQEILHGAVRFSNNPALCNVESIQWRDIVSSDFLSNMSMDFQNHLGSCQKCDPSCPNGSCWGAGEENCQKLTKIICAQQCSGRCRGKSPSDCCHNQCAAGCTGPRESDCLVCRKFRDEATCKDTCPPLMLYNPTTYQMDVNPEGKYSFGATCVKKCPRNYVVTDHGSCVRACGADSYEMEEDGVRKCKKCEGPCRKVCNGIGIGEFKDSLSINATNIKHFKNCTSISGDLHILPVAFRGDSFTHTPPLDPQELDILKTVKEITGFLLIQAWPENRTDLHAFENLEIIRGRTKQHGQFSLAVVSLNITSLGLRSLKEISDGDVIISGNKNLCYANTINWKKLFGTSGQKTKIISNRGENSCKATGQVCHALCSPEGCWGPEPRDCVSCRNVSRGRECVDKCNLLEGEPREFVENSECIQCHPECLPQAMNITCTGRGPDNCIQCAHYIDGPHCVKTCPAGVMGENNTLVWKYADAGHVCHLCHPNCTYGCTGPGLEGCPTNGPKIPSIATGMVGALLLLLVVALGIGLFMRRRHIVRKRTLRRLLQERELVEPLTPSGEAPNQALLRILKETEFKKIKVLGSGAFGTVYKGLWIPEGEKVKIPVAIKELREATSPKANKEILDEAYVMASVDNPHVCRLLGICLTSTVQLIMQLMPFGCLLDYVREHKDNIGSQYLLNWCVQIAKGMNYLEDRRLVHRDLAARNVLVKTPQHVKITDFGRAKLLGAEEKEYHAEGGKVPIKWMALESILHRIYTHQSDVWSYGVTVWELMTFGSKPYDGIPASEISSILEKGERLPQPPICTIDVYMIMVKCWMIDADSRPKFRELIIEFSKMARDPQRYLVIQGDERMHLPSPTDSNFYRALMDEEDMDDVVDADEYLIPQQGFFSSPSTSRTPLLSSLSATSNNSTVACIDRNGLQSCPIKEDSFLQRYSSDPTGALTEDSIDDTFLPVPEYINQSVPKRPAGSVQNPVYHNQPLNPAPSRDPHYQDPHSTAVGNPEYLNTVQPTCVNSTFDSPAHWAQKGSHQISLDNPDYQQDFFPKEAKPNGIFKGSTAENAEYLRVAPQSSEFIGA
Sequence of EML4-ALK kinase (Q9UM73 other isoform, or with tags, fused parts or gaps): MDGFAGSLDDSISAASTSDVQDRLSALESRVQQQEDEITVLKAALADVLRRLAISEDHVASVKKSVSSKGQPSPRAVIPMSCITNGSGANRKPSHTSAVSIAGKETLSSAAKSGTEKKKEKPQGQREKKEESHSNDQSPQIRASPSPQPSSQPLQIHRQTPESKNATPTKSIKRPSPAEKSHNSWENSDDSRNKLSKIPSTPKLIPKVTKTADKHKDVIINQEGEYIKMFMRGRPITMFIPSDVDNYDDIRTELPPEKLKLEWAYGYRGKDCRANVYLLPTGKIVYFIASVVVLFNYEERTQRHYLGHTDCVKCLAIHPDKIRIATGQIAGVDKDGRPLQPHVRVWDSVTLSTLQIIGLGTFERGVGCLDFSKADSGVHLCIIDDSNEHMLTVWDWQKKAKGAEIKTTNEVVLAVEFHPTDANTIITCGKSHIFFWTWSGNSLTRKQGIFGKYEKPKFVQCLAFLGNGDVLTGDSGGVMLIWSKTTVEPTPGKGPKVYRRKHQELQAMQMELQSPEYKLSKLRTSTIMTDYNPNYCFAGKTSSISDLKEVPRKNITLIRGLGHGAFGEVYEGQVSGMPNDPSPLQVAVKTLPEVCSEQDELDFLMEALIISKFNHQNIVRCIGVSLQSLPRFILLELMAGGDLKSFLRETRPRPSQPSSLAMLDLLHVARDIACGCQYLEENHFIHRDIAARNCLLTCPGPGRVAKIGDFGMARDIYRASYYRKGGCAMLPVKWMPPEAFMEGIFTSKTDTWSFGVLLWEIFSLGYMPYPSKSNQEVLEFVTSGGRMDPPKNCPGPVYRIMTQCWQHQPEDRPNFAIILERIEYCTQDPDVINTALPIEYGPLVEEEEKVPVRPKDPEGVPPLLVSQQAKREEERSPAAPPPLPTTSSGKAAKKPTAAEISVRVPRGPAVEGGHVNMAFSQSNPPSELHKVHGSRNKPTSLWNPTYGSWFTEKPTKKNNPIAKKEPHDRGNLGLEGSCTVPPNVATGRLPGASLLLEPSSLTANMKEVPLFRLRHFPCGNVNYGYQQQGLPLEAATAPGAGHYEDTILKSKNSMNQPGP
Sequence of EGFR-C797S/T790M/L858R (P00533 25-1210 T790M/C797S/L858R): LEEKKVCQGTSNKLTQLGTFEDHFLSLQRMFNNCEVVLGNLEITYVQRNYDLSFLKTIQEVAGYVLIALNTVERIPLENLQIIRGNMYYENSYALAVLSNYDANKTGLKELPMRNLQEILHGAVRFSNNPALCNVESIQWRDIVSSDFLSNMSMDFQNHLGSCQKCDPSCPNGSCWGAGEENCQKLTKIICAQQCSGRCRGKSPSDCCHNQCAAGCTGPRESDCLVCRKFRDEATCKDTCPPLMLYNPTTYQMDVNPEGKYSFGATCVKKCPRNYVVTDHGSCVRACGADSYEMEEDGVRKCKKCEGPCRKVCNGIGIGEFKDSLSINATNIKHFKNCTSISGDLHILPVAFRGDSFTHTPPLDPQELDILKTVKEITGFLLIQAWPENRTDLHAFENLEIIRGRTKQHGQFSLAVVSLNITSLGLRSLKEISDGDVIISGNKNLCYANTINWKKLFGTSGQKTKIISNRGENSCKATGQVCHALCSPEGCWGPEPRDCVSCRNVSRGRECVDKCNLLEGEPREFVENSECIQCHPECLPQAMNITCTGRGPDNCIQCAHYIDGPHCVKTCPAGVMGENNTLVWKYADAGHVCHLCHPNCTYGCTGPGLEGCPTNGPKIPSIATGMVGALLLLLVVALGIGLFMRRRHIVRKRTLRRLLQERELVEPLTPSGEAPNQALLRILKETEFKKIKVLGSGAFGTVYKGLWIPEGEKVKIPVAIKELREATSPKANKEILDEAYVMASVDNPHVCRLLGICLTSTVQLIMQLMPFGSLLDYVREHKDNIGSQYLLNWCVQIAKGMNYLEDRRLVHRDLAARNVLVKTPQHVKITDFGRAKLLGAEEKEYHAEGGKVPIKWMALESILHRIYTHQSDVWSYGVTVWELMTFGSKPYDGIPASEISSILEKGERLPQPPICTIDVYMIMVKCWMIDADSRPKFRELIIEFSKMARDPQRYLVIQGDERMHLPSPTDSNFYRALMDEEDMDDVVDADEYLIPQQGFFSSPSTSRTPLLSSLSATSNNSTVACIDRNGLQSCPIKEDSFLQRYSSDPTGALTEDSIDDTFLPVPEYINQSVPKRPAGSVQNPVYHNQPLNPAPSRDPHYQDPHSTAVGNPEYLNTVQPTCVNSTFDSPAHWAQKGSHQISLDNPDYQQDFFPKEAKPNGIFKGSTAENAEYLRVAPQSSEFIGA
Sequence of EGFR-WT (P00533 25-1210): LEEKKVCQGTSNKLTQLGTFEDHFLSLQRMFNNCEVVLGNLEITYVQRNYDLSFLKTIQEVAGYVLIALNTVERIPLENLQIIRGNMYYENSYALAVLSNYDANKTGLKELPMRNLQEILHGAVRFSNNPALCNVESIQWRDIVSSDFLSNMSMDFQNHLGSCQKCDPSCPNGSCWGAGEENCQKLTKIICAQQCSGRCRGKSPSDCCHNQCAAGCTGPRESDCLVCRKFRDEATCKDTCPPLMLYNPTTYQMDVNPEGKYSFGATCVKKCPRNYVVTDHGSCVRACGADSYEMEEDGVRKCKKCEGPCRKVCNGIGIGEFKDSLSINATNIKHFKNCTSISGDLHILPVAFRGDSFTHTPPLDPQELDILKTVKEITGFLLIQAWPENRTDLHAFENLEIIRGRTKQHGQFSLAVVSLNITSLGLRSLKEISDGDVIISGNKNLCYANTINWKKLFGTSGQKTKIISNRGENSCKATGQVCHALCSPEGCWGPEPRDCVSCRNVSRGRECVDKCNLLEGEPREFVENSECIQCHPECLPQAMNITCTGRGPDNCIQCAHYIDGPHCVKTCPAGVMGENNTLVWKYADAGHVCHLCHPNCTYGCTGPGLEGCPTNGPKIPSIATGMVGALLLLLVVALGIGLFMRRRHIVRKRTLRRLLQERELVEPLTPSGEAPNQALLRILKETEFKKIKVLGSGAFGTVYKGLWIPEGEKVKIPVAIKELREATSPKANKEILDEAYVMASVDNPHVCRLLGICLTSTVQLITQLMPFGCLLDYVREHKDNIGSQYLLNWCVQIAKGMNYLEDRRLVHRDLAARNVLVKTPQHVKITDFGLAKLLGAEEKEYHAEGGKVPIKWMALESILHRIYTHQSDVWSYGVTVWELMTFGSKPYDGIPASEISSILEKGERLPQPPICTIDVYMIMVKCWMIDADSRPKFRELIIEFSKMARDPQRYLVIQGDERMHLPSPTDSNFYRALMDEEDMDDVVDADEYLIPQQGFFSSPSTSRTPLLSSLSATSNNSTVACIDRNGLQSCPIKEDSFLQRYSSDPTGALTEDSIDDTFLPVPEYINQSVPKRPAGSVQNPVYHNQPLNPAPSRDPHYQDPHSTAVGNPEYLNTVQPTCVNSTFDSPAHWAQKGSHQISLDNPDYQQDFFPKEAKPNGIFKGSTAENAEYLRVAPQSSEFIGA

Structure (SMILES): COc1cc(N2CCC(N3CCN(C)CC3)CC2)c(C)cc1Nc1ncc(Br)c(Nc2ccc(C)cc2P(C)(C)=O)n1 [Compound 2]
- IC50 [1]: 0.008 µM
- Tumor volume Day 0 [2, 8]: 129 mm^3
- Relative tumor proliferation rate T/C Day 2 [2, 8]: 24.19%
- Tumor volume Day 2 [2, 8]: 55 mm^3
- Relative tumor proliferation rate T/C Day 5 [2, 8]: 2.61%
- Tumor volume Day 5 [2, 8]: 13 mm^3
- Relative tumor proliferation rate T/C Day 7 [2, 8]: 0.74%
- Tumor volume Day 7 [2, 8]: 7 mm^3
- Relative tumor proliferation rate T/C Day 9 [2, 8]: 0.68%
- Tumor volume Day 9 [2, 8]: 10 mm^3
- Relative tumor proliferation rate T/C Day 12 [2, 8]: 0.89%
- Tumor volume Day 12 [2, 8]: 17 mm^3
- Relative tumor proliferation rate T/C Day 14 [2, 8]: 0.91%
- Tumor volume Day 14 [2, 8]: 20 mm^3
- IC50 [3]: 1.26 µM

Structure (SMILES): COc1cc(N2CCC(N(C)C)CC2)c(C)cc1Nc1ncc(Br)c(Nc2ccc(C)cc2P(C)(C)=O)n1 [Compound 6]
- IC50 [1]: 0.0048 µM
- IC50 [4]: 0.0168 µM
- IC50 [5]: 0.0146 µM
- Tumor volume Day 0 [2, 9]: 128 mm^3
- Relative tumor proliferation rate T/C Day 2 [2, 9]: 16.51%
- Tumor volume Day 2 [2, 9]: 37 mm^3
- Relative tumor proliferation rate T/C Day 5 [2, 9]: 5.28%
- Tumor volume Day 5 [2, 9]: 25 mm^3
- Relative tumor proliferation rate T/C Day 7 [2, 9]: 3.01%
- Tumor volume Day 7 [2, 9]: 25 mm^3
- Relative tumor proliferation rate T/C Day 9 [2, 9]: 1.59%
- Tumor volume Day 9 [2, 9]: 21 mm^3
- Relative tumor proliferation rate T/C Day 12 [2, 9]: 1.88%
- Tumor volume Day 12 [2, 9]: 33 mm^3
- Relative tumor proliferation rate T/C Day 14 [2, 9]: 1.99%
- Tumor volume Day 14 [2, 9]: 39 mm^3
- Effect on tumor growth (in words) [2]: obviously inhibit the tumor growth
- IC50 [6]: 0.0288 µM
- IC50 [3]: 1.23 µM

Structure (SMILES): COc1cc(N2CCC(N3CCN(C)CC3)CC2)c(Cl)cc1Nc1ncc(Br)c(Nc2ccc(C)cc2P(C)(C)=O)n1 [Compound 14]
- IC50 [1]: 0.0074 µM
- IC50 [4]: 0.0101 µM
- IC50 [5]: 0.0129 µM
- Tumor volume Day 0 [2, 10]: 128 mm^3
- Relative tumor proliferation rate T/C Day 2 [2, 10]: 35.71%
- Tumor volume Day 2 [2, 10]: 84 mm^3
- Relative tumor proliferation rate T/C Day 5 [2, 10]: 11.26%
- Tumor volume Day 5 [2, 10]: 55 mm^3
- Relative tumor proliferation rate T/C Day 7 [2, 10]: 3.99%
- Tumor volume Day 7 [2, 10]: 37 mm^3
- Relative tumor proliferation rate T/C Day 9 [2, 10]: 3.95%
- Tumor volume Day 9 [2, 10]: 58 mm^3
- Relative tumor proliferation rate T/C Day 12 [2, 10]: 5.24%
- Tumor volume Day 12 [2, 10]: 101 mm^3
- Relative tumor proliferation rate T/C Day 14 [2, 10]: 6.34%
- Tumor volume Day 14 [2, 10]: 132 mm^3
- Effect on tumor growth (in words) [2]: obviously inhibit the tumor growth
- IC50 [6]: 0.0166 µM
- IC50 [3]: 0.62 µM
- IC50 [7]: 0.0659 µM
